From article PMC5829242, “Chiral DOTA chelators as an improved platform for biomedical imaging and therapy applications” (Nature Communications, 2018)

Key:
[1] = Stability of Eu complexes on heating, at low pD and with Zn2+ (1H NMR); format: physicochemical
[2] = Gd complexes biodistribution studies (ICP-MS); format: in vivo, BALB/c mice; settings: 0.025 mmol/kg i.v., 5-360 min post injection
Excerpt: Most commercially available Gd(III)-based MRI contrast agents are excreted rapidly and exclusively through the renal pathway. One of the few exceptions is an acyclic compound, Gd-EOB-DTPA, which has a mixed clearance (50% renal, 50% biliary) and is used for imaging of the liver and biliary system. Gd-BOPTA and MS-325 have predominantly renal elimination with <10% elimination through the biliary system. […] We illustrated with our studies that there is a significant variation in the biodistribution profiles despite the small structural differences of the chiral substituents (Supplementary Fig. 20). Gd biodistribution in BALB/c mice was measured by ICP-MS at 5, 15, 30, 60, 180 and 360 min following injection. […] Low levels of Gd(III) are present at 6 h post injection. […] The specific and unusual localisation of [GdL2]^− in the liver makes it a potential hepatobiliary-specific MRI contrast agent.
(§1) Gd concentrations were determined using an Agilent 8800-QQQ ICP-MS system. All samples were diluted with 0.1% Triton X-100 in 5% nitric acid. Lutetium internal standard was steadily introduced to the ICP-MS from an external source during the analysis. A linear calibration curve for each metal ranging from 0.1 ppb to 200 ppb was generated daily for the quantification.
Complexes [GdL1]^−, [GdL2]^− and [GdL5]^− were prepared by dissolving in saline solution, while [GdDOTA]^− (Dotarem) was diluted in saline solution. Eight-week-old male BALB/c mice (purchased from BioLASCO, Taiwan) each weighing approximately 25 g were administered with a single dose of 0.025 mmol/kg compound ([GdL1]^−, [GdL2]^−, [GdDOTA]^− and [GdL5]^−; 3 mice per compound per time point) in a 100 μl volume via lateral tail vein injection. The mice were then euthanized, and their blood collected by cardiac puncture at each time point (5, 15, 30, 60, 180 or 360 min post injection). A control group of 4 mice was treated with saline and killed at time point 0. The liver, lung, heart, kidneys, spleen and brain were removed from the animals and weighed. Gd content in tissue and blood samples was quantified via ICP-MS analysis. All experiments were performed in accordance with the NIH Guide for the Care and Use of Laboratory Animals and approved by the Institutional Animal Care and Use Committee of Massachusetts General Hospital or by the Department of Health of the Hong Kong Government and the Animal Subjects Ethics Sub-Committee of Hong Kong Polytechnic University.

[3] = Relaxivity measurements at 1.41T and 37 °C; format: physicochemical
Procedure: (§2) Relaxivity measurements were performed on a Bruker mq60 Minispec at 1.41T and 37 °C. Longitudinal (T1) relaxation times were measured using an inversion recovery experiment with 10 inversion times of duration ranging between 0.05 × T1 and 5 × T1. Transverse (T2) relaxation times were measured using a CPMG pulse sequence. Relaxivity (r1, r2) was determined from the slope of a plot of 1/T1,2 vs [Gd] for at least 4 concentrations of Gd(III) (data shown in Supplementary Figs. 93–110). The T2 relaxation times of ^17O at 11.7T were estimated from the full-width at half-height of the H2^17O resonance at temperatures ranging from 278 to 368K. Reduced relaxation rates (1/T2r) were calculated by taking the difference of 1/T2 measured in the presence and absence of Gd(III) and dividing by the mole fraction of coordinated water molecules, assuming q = 1. […] However, at the high magnetic field used, and because of the very-fast water exchange rates observed, there was negligible contribution of T1e, and the data were refit to a two-parameter model using the water exchange rate at 310K (τM) and enthalpy of activation for water exchange (ΔH^‡) as adjustable parameters. The Gd-O hyperfine coupling constant, A/ħ, was assumed to be -3.8 × 10^6 rad s^−1 [57], [58]. Samples were prepared in neat H2O adjusted and enriched with a small amount of H2^17O.

[4] = Ex vivo biodistribution 2 h post injection after MRI study (ICP-MS); format: in vivo, C57/Bl6 mice; settings: 0.1 mmol per kg i.v.
Procedure: as §1
(§3) Imaging was performed at 4.7T using a small-bore animal scanner (Bruker Biospec). Pilot dynamic MRI studies were performed with [GdL1]^−, [GdL2A]^−, [GdL2B]^− and [GdL5]^−; n = 1 per compound. Six to eight weeks male C57/Bl6 mice were anaesthetised with isoflurane (1%–2%) and placed in a specially designed cradle with body temperature maintained at 37 °C. The tail vein was catherised for intravenous delivery of the contrast agent while the animal was positioned in the scanner. A pneumatic pillow was placed on the mouse to enable respiratory monitoring (SA Instruments), and the animal’s body temperature was maintained with warm air. The imaging protocol utilised a three-dimensional fast low angle shot (3D FLASH) with a […] flip angle, 9.00 ms repetition rate, 2.39 ms echo time, 4.8 cm × 2.4 cm × 2.4 cm field of view with a 0.3 mm isotropic resolution. Images were acquired with either 2 or 8 averages giving an acquisition time of 2 min or 8 min, respectively. Baseline images were acquired with both 2 and 8 averages, then the Gd complex (0.1 mmol per kg) was injected intravenously and the sequence with 2 averages was repeated for a period of 10 min to monitor blood clearance. At 10, 30, 45, 60, 75 and 90 min after probe injection, the sequence with 8 averages was repeated to monitor the clearance of contrast from the liver and kidneys. After imaging was performed, the mouse was removed from the scanner and euthanized at 2 h post injection and the tissues were harvested for Gd quantification by ICP-MS.

[5] = 17O NMR water exchange (residence time of water co-ligand); format: physicochemical; settings: 17O NMR at 11.7T; for τM^310K, mean residence time of the water co-ligand at 310 K: q = 1 assumed
Procedure: as §2

[6] = In vivo dynamic T1-weighted MR imaging at 4.7T; set-up: species or system C57/Bl6 mice; settings: 0.1 mmol per kg i.v., 4.7 tesla, n = 1
Procedure: Dynamic T1-weighted MR imaging at 4.7 tesla was performed with C57/Bl6 mice before, during, and after 0.1 mmol per kg injection of each compound (Fig. 7).
as §3

[7] = Kinetic stability of Gd complexes monitored by RP-HPLC (acid, base, DTPA, DOTA, ZnCl2); format: physicochemical
Excerpt: The kinetic stability of GBCAs, which reflects the dissociation of the Gd ions from its chelate is used to predict the stability in vivo[10]. The proton-assisted dissociation and direct attack of the endogenous ions are regarded as two main pathways that induced the dissociation of the chelates. The inertness of our Gd(III) complexes was maintained up to 7 days after addition of 1000 equivalents of a competitive ligand, DTPA (Supplementary Fig. 7 & 8). […] The harshest condition tried was setting the complexes of [GdL2A]^−, [GdL2B]^− and [GdDOTA]^− in 1N HCl (Fig. 5, Supplementary Figs. 13 - 15).
Fig. […] Error bars for [GdL2A]^- and [GdL2B]^- refer to the standard error of mean (S.E.M.), statistical data fitting analysis (n = 3; s.e.m.)

[8] = Stability of Yb complexes in 1N DCl by 1H NMR; format: physicochemical
Procedure: (§4) The stability of CuDOTA and CuL2 was compared by UV-Visible spectra. […] Because the ionic radii of Lu(III) is very close to Yb(III), so we used the Yb(III) as a surrogate to study the stability. […] Additionally, we examined in vitro serum stability of ^64CuL2 at 37 °C.

[9] = In vitro serum stability of 64CuL2; format: in vitro ADME; settings: 37 °C
Procedure: as §4

CC[C@H]1CN(CC(=O)[O-])[C@@H](CC)CN(CC(=O)[O-])[C@@H](CC)CN(CC(=O)[O-])[C@@H](CC)CN1CC(=O)[O-].[Eu+3] [[EuL2A]^−]
stability with Zn2+ ([1]; 1 equivalent of Zn^2+): nor did the presence of 1 equivalent of Zn^2+ caused any instability | inertness upon heating ([1]; 90 °C for 3 days, pD 7.0 ([EuL2A]) and 6.0 ([EuL2B])): extreme inertness | racemization upon heating ([1]; heating for 3 days at pD 1.0): no signs of racemization

C[C@H]1CN(CC(=O)[O-])[C@@H](C)CN(CC(=O)[O-])[C@@H](C)CN(CC(=O)[O-])[C@@H](C)CN1CC(=O)[O-].[Gd+3] [[GdL1]^−]
Gd biodistribution / elimination profile [2]: near equal renal and hepatic clearance | r1 relaxivity ([3]; 4.5% w/v HSA (1.4T)): 4.5 mM⁻¹ s⁻¹ | r1 relaxivity ([3]; Human Plasma (1.4T)): 4.6 mM⁻¹ s⁻¹ | r1 relaxivity ([3]; Water (1.4T)): 4.1 mM⁻¹ s⁻¹ | Gd concentration in blood [4]: 1.04 nmol Gd per gram tissue | Gd concentration in gall bladder [4]: 139.87 nmol Gd per gram tissue | Gd concentration in heart [4]: 1.68 nmol Gd per gram tissue | Gd concentration in intestines [4]: 7.75 nmol Gd per gram tissue | Gd concentration in kidney [4]: 16.71 nmol Gd per gram tissue | Gd concentration in liver [4]: 1.64 nmol Gd per gram tissue | Gd concentration in lung [4]: 1.81 nmol Gd per gram tissue | Gd concentration in muscle [4]: 4.29 nmol Gd per gram tissue | Gd concentration in spleen [4]: 6.63 nmol Gd per gram tissue | Gd concentration in stomach [4]: 11.35 nmol Gd per gram tissue | Gd concentration in tail [4]: 4.57 nmol Gd per gram tissue | ΔH^‡, enthalpy change of activation of water exchange [5]: 3.82 ± 0.335 kcal/mol | τM^310K, mean residence time of the water co-ligand at 310 K [5]: 13 ± 0.4 ns | MR enhancement of liver and gall bladder [6]: some enhancement of the liver and gall bladder

CC[C@H]1CN(CC(=O)[O-])[C@@H](CC)CN(CC(=O)[O-])[C@@H](CC)CN(CC(=O)[O-])[C@@H](CC)CN1CC(=O)[O-].[Gd+3] [[GdL2B]^−]
decomplexation ([7]; 0.1N NaOH, over 10 days): negligible decomplexation | decomplexation ([7]; 1N HCl, room temperature, after 487 h): only minimal decomplexation | decomplexation ([7]; 1N HNO3, over 10 days): negligible decomplexation | stability and interconversion ([7]; one equivalent of DOTA ligand in 1N HCl): no interconversion was observed | r1 relaxivity ([3]; 4.5% w/v HSA (1.4T)): 4.8 mM⁻¹ s⁻¹ | r1 relaxivity ([3]; Human Plasma (1.4T)): 4.9 mM⁻¹ s⁻¹ | r1 relaxivity ([3]; Water (1.4T)): 3.9 mM⁻¹ s⁻¹ | Gd concentration in gall bladder [4]: 1066 nmol Gd per gram tissue | Gd concentration in blood ([4]; listed as GdL2B): 0.60 nmol Gd per gram tissue | Gd concentration in gall bladder ([4]; listed as GdL2B): 1066.22 nmol Gd per gram tissue | Gd concentration in heart ([4]; listed as GdL2B): 3.09 nmol Gd per gram tissue | Gd concentration in intestines ([4]; listed as GdL2B): 47.07 nmol Gd per gram tissue | Gd concentration in kidney ([4]; listed as GdL2B): 7.42 nmol Gd per gram tissue | Gd concentration in liver ([4]; listed as GdL2B): 1.12 nmol Gd per gram tissue | Gd concentration in lung ([4]; listed as GdL2B): 2.63 nmol Gd per gram tissue | Gd concentration in muscle ([4]; listed as GdL2B): 5.43 nmol Gd per gram tissue | Gd concentration in spleen ([4]; listed as GdL2B): 4.82 nmol Gd per gram tissue | Gd concentration in stomach ([4]; listed as GdL2B): 1.05 nmol Gd per gram tissue | Gd concentration in tail ([4]; listed as GdL2B): 2.64 nmol Gd per gram tissue | τM^310K, mean residence time of the water co-ligand at 310 K [5]: 1.1 ± 0.1 ns | MR enhancement of liver and gall bladder [6]: profound enhancement of the liver and gall bladder | MR signal in the kidneys over time / at 60 min post injection [6]: approached baseline

NCCCC[C@H]1CN(CC(=O)[O-])[C@@H](CCCCN)CN(CC(=O)[O-])[C@@H](CCCCN)CN(CC(=O)[O-])[C@@H](CCCCN)CN1CC(=O)[O-].[Gd+3] [[GdL5]^−]
Gd biodistribution / elimination profile [2]: mainly in the kidney and showed no tendency of clearance after 6 h | r1 relaxivity ([3]; 4.5% w/v HSA (1.4T)): 5.1 mM⁻¹ s⁻¹ | r1 relaxivity ([3]; Human Plasma (1.4T)): 5.1 mM⁻¹ s⁻¹ | r1 relaxivity ([3]; Water (1.4T)): 4.1 mM⁻¹ s⁻¹ | Gd concentration in blood [4]: 0.80 nmol Gd per gram tissue | Gd concentration in gall bladder [4]: 60.17 nmol Gd per gram tissue | Gd concentration in heart [4]: 2.18 nmol Gd per gram tissue | Gd concentration in intestines [4]: 2.68 nmol Gd per gram tissue | Gd concentration in kidney [4]: over 90 nmol Gd per gram tissue | Gd concentration in liver [4]: 2.01 nmol Gd per gram tissue | Gd concentration in lung [4]: 1.49 nmol Gd per gram tissue | Gd concentration in muscle [4]: 2.97 nmol Gd per gram tissue | Gd concentration in spleen [4]: 4.43 nmol Gd per gram tissue | Gd concentration in stomach [4]: 1.11 nmol Gd per gram tissue | Gd concentration in tail [4]: 2.28 nmol Gd per gram tissue | Gd concentration in kidney ([4]; listed as GdL5): 93.23 nmol Gd per gram tissue | ΔH^‡, enthalpy change of activation of water exchange [5]: 4.3 ± 0.598 kcal/mol | τM^310K, mean residence time of the water co-ligand at 310 K [5]: 16 ± 0.8 ns | MR enhancement of liver and gall bladder [6]: very little enhancement in the liver | MR signal in the kidneys over time / at 60 min post injection [6]: renal cortex remained strongly enhanced

O=C([O-])CN1CCN(CC(=O)[O-])CCN(CC(=O)[O-])CCN(CC(=O)[O-])CC1.[Yb+3] [[YbDOTA]^−, reference compound]
decomplexation [8]: decomplexed very fast

CC[C@H]1CN(CC(=O)[O-])[C@@H](CC)CN(CC(=O)[O-])[C@@H](CC)CN(CC(=O)[O-])[C@@H](CC)CN1CC(=O)[O-].[Yb+3] [[YbL2]^−]
decomplexation [8]: no obvious decomplexation

CC[C@H]1CN(CC(=O)O)[C@@H](CC)CN(CC(=O)[O-])[C@@H](CC)CN(CC(=O)O)[C@@H](CC)CN1CC(=O)[O-].[64Cu+2] [^64CuL2]
decrease of radiochemical purity ([9]; 1 h of incubation): less than 0.3% | decrease of radiochemical purity ([9]; 24 h of incubation): < 6.3%
